In test [1] the target is mushroom tyrosinase. As to the kind of experiment: Mushroom tyrosinase inhibition in the presence of L-dopa. The format is biochemical. The following applies: L-dopa as substrate.
Test [2] is described as follows: DPPH radical scavenging activity assay. The settings on record: test sample 500 µM, DPPH 0.18 mM, 30 min in the dark. The method, then: 2.11. DPPH Radical Scavenging Activity Assay
The DPPH radical scavenging activities of analogs 1–8 were investigated as previously described with minor modification. L-Ascorbic acid was used as a positive control. In brief, 20 µL of analogs (5 mM) in DMSO or 5 mM L-ascorbic acid in distilled water were mixed with 180 µL of 0.2 mM DPPH in methanol in a 96-well microplate. After the microplate had been stored in the dark for 30 min, optical densities (ODs) were measured at 517 nm using a microplate reader (VersaMax®, Molecular Devices, Sunnyvale, CA, USA). DPPH radical scavenging activities were determined using the following formula:DPPH radical scavenging activity (%) = 100 × (Ac − As)/Ac(1) where Ac indicates the optical density of the non-treated control and As indicates the optical density of test sample. Experiments were conducted independently 3 times.
There is a possibility that compounds with antioxidant properties inhibit the oxidations of tyrosinase substrates, such as L-tyrosine and L-dopa, without interacting with the tyrosinase. Melanin production requires many oxidative processes, including the conversion of L-tyrosine to dopaquinone via L-dopa. Therefore, compounds with antioxidant activity have the potential to inhibit melanogenesis. DPPH (2,2-diphenyl-1-picrylhydrazyl) contains a free radical, and DPPH assays are commonly used to assess antioxidant activity. In this experiment, L-ascorbic acid (an antioxidant) was used as a positive control. The assay was conducted at a test sample and L-ascorbic acid concentration of 500 µM and a DPPH concentration of 0.18 mM. After standing test sample/DPPH mixtures for 30 min in the dark, optical densities were measured to evaluate radical scavenging activities.
(In general: Loss of DPPH colour is used to gauge radical scavenging.)

Test [3] deals with mushroom tyrosinase. As to the kind of experiment: Kinetic studies on mushroom tyrosinase inhibition (Lineweaver–Burk and Dixon plots, L-tyrosine). It is filed as biochemical. The settings on record: for mode of mushroom tyrosinase inhibition: L-tyrosine as substrate; for Ki: mushroom tyrosinase. Here is the method: 2.6. Kinetic Studies on Mushroom Tyrosinase Inhibition by Analogues 2 and 3
Lineweaver–Burk plots of analogues 2 and 3 were used to determine modes of mushroom tyrosinase inhibition in the presence of L-tyrosine as substrate. Briefly, 20 µL of an aqueous mushroom tyrosinase solution (200 units/mL), and 170 µL of an aqueous solution consisting of L-tyrosine at various concentrations (final concentrations: 0, 1, 2, 4, 8, or 16 mM), and sodium phosphate buffer (pH 6.5, final concentration: 14.7 mM) were added to the wells of a 96-well microplate. Subsequently, analogues 2 and 3 at four different concentrations (10 µL; final concentrations 0, 5, 10, or 20 µM in DMSO solution for 2, and concentrations of 0, 1, 2, or 4 µM in DMSO solution for 3) were added to wells. Initial rates of dopachrome formation were determined by measuring changes in absorbance at 475 nm per min (ΔOD475/min) using a microplate reader (VersaMax®, Molecular Devices, Sunnyvale, CA, USA). Maximum velocities (Vmax) were calculated from Lineweaver–Burk plots obtained using six different L-tyrosine concentrations. The modes of mushroom tyrosinase inhibition by the analogs were determined using the locations of plot convergence points.
Lineweaver–Burk double reciprocal plots were used to analyze enzyme’s inhibitory mechanisms. Kinetic studies were conducted using four different concentrations of analogs 2 (0, 5, 10, or 20 μM) and 3 (0, 1, 2, or 4 μM) in the presence of L-tyrosine at five different concentrations (1, 2, 4, 8, or 16 mM).

Test [4] can be described thus: ABTS cation radical scavenging activity assay. The settings on record: test sample 100 µM, 2 min in the dark. Here is the method: 2.12. ABTS Cation Radical Scavenging Activity Assay
The free radical scavenging activities of analogs 1–8 and Trolox were determined using an ABTS radical cation decolorization assay (SEJIN CI Co., Seoul, Korea), as previously described with minor modification. Trolox was used as the positive control. ABTS radicals were produced by adding 10 mL of 7 mM ABTS in distilled water to 10 mL of 2.45 mM aqueous potassium persulfate solution. The mixture was kept in the dark for 12–16 h at RT until the reaction was complete and absorbance had stabilized. The prepared free radical solution was then diluted with methyl alcohol so that the optical density at 734 nm was 0.70 ± 0.02. Test samples (10 µL, final concentration at 100 µM) dissolved in EtOH/DMSO (9:1 v/v) were added to the diluted free radical solution (90 µL) in a 96-well plate. After standing at RT for 2 min in the dark, well absorbances were measured at 734 nm, and ABTS radical scavenging activities were calculated using the following formula:ABTS free radical scavenging activity (%) = (Ac − As) × 100/Ac(2) where Ac indicates the absorbance of the non-treated control, and As indicates the absorbances of test samples. Experiments were conducted independently 3 times.
The ABTS (2,2′-azino-bis(3-ethylbenzothiazoline-6-sulfonic acid)) cation radical scavenging assay is also commonly used to evaluate antioxidant effects. ABTS is converted to the ABTS radical cation by the transfer of one electron to potassium persulfate. Trolox was used as the positive control, and assays were performed at a test sample (analogs 1–8 and Trolox) concentration of 100 µM. The ABTS radical solution obtained by a reaction of ABTS with potassium persulfate was mixed with test samples and left in the dark for 2 min. ABTS radical scavenging abilities were evaluated by measuring absorbances at 734 nm. […] On the other hand, analog 1 with a 4-hydroxyphenyl group, and analogs 7 and 8 with bromo substituents on the β-phenyl ring weakly scavenged the ABTS radical (16.6–24.8% scavenging). […] Furthermore, the results for ABTS and DPPH radical scavenging activities were similar.

On to `O=C1/C(=C/c2ccc(O)cc2O)SC(=S)N1C1CCCCC1` [Analog 3, (Z)-3-Cyclohexyl-5-(2,4-dihydroxybenzylidene)-2-thioxothiazolidin-4-one], for which the IC50 (in general, the concentration that inhibits the measured activity by half) at mushroom tyrosinase [1] is 10.6 ± 2.92 µM. The “DPPH radical scavenging activity” value in test [2] is 73%. The “mode of mushroom tyrosinase inhibition” value in the test on mushroom tyrosinase [3] (Lineweaver–Burk plots) is reported as “non-competitive”. Also, the Michaelis-Menten constant (Km) (commonly the substrate concentration at which the rate is half of its maximum) in the test on mushroom tyrosinase [3] (Lineweaver–Burk plots, L-tyrosine, independent of analog 3 concentration (0, 1, 2, 4 µM)) was found to be 2810 µM. On mushroom tyrosinase [3] (L-tyrosine), the Ki (as a rule, a measure of affinity in units of concentration, obtained from inhibition or displacement) turned out to be 1.27 µM. Besides, the “ABTS radical scavenging activity” value in test [4] turned out to be 72.1%.
Turning to `O=C1/C(=C/c2ccc(O)c(O)c2)SC(=S)N1C1CCCCC1` [Analog 2, (Z)-3-Cyclohexyl-5-(3,4-dihydroxybenzylidene)-2-thioxothiazolidin-4-one], the IC50 on mushroom tyrosinase [1] amounted to 39.7 ± 3.43 µM. Besides, the “DPPH radical scavenging activity” value in test [2] worked out at 92%. Moreover, the “mode of mushroom tyrosinase inhibition” value with mushroom tyrosinase [3] (Lineweaver–Burk plots) is “competitively”. Besides, the Vmax (in general, the rate approached at saturating substrate) with mushroom tyrosinase [3] (Lineweaver–Burk plots, L-tyrosine, independent of analog 2 concentration (0, 5, 10, 20 µM)) was 0.00343 mM/min. For the same compound, the affinity on mushroom tyrosinase [3] (L-tyrosine), expressed as Ki, was 2.22 µM. For the same compound, in test [4], the “ABTS radical scavenging activity” value amounted to 81.0%.

These data come from publication PMC9598926, “Design and Synthesis of (Z)-5-(Substituted benzylidene)-3-cyclohexyl-2-thioxothiazolidin-4-one Analogues as Anti-Tyrosinase and Antioxidant Compounds: In Vitro and In Silico Insights” (Antioxidants, 2022).
